One test deals with T1, PTPN2 (i.e., TC-PTP) (Homo sapiens, UniProt P17706).
T1 sequence (P17706 1-415): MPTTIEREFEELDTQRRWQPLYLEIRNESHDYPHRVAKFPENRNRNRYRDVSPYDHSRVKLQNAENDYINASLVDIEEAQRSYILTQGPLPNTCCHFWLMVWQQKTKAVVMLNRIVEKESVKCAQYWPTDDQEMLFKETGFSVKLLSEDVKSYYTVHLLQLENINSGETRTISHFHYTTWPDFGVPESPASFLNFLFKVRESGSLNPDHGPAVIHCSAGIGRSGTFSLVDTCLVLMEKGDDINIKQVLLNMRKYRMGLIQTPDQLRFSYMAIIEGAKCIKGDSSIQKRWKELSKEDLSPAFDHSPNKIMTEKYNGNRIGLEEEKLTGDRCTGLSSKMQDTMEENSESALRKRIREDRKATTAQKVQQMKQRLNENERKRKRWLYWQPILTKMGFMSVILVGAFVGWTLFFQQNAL
Put plainly: Phosphatase activity assay (DiFMUP substrate), PTPN2. The test is classed as biochemical. The conditions noted are these: compounds binned ≤1 uM or >1 uM. The method in brief: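 RT, HEPES pH 7.5 buffer with DTT/Tween-20. 10-point inhibitor series premixed ~2 min with enzyme (PTPN2 0.025 ng/ul). Start with DiFMUP at enzyme Km (~45 μM for PTPN2). Read DiFMU ex360/em450 continuously 15–30 min; initial rate vs concentration, 4-parameter fit → IC50.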

A further test has as its target T2, PTPN1 (i.e., PTP1B) (Homo sapiens, UniProt P18031).
T2 sequence (P18031 1-435): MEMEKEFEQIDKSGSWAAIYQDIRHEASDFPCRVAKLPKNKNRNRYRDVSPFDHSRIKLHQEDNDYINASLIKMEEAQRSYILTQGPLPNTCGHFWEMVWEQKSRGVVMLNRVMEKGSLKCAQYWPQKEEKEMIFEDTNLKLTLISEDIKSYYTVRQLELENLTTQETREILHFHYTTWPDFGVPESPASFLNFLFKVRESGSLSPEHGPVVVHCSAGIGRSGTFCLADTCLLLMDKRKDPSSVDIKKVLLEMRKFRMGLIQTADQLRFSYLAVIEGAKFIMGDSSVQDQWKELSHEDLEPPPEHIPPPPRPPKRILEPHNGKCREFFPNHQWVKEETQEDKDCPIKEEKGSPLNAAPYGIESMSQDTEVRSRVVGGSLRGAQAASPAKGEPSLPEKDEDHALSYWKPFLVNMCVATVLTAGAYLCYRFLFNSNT
The test is described as follows: Phosphatase activity assay (DiFMUP substrate), PTP1B. The note with it: compounds binned ≤1 uM or >1 uM. The test is classed as biochemical. The method in brief: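 Read-out is continuous fluorescence of DiFMU (360 nm excitation, 450 nm emission) over about 15-30 minutes, with DiFMUP substrate at the enzyme's independently determined Km (PTPN2 approx. 45 μM final). Buffer: 50 mM HEPES pH 7.5, 150 mM NaCl, 0.5 mM EDTA, 1 mM DTT, 0.001% Tween-20, room temperature; initial rates versus 10-point dilution fitted for IC50, at least duplicate.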

A value given as a limit tells only on which side of the number the result lay.

Consider `COc1ccc(-c2ccc(O)c(N3CC(=O)NS3(=O)=O)c2F)cn1` [Compound 213, 5-(2-fluoro-6-hydroxy-3-(6-methoxypyridin-3-yl)phenyl)-1,2,5-thiadiazolidin-3-one 1,1-dioxide], for which the IC50 on PTPN2 (i.e., TC-PTP) was at most 1000 nM; on PTPN1 (i.e., PTP1B), at most 1000 nM.
As to `O=C1CN(c2c(O)ccc(C3=CCN(S(=O)(=O)CCC(F)(F)F)C3)c2F)S(=O)(=O)N1` [Compound 251, 5-(2-fluoro-6-hydroxy-3-(1-((3,3,3-trifluoropropyl)sulfonyl)-2,5-dihydro-1H-pyrrol-3-yl)phenyl)-1,2,5-thiadiazolidin-3-one 1,1-dioxide], the IC50 on PTPN2 (i.e., TC-PTP) was at most 1000 nM; on PTPN1 (i.e., PTP1B), at most 1000 nM.
For `CC(C)CCn1cc(-c2ccc(O)c(N3CC(=O)NS3(=O)=O)c2F)c(=O)[nH]1` [Compound 444, 5-(2-fluoro-6-hydroxy-3-(1-isopentyl-3-oxo-2,3-dihydro-1H-pyrazol-4-yl)phenyl)-1,2,5-thiadiazolidin-3-one 1,1-dioxide], the IC50 is at most 1000 nM on PTPN2 (i.e., TC-PTP) and at most 1000 nM on PTPN1 (i.e., PTP1B).
Take `CN1CC2(C1)CN(c1cc(-c3ccc(O)c(N4CC(=O)NS4(=O)=O)c3F)[nH]n1)C2` [Compound 252, 5-(2-fluoro-6-hydroxy-3-(3-(6-methyl-2,6-diazaspiro[3.3]heptan-2-yl)-1H-pyrazol-5-yl)phenyl)-1,2,5-thiadiazolidin-3-one 1,1-dioxide]: the IC50 is at most 1000 nM on PTPN2 (i.e., TC-PTP) and at most 1000 nM at PTPN1 (i.e., PTP1B).
For `COC(=O)n1nc(C2CC2)cc1-c1ccc(O)c(N2CC(=O)NS2(=O)=O)c1F` [Compound 545, methyl 3-cyclopropyl-5-(3-(1,1-dioxido-4-oxo-1,2,5-thiadiazolidin-2-yl)-2-fluoro-4-hydroxyphenyl)-1H-pyrazole-1-carboxylate], the half-inhibitory concentration (IC50) at PTPN2 (i.e., TC-PTP) is at most 1000 nM; at PTPN1 (i.e., PTP1B) it was at most 1000 nM.
With `Cc1cc(-c2ccc(O)c(N3CC(=O)NS3(=O)=O)c2F)on1` [Compound 182, 5-(2-fluoro-6-hydroxy-3-(3-methylisoxazol-5-yl)phenyl)-1,2,5-thiadiazolidin-3-one 1,1-dioxide], the IC50 at PTPN2 (i.e., TC-PTP) was at most 1000 nM; on PTPN1 (i.e., PTP1B), at most 1000 nM.
In the case of `O=C1CN(c2c(O)ccc(C3=CCOC3)c2F)S(=O)(=O)N1` [Compound 291, 5-(3-(2,5-dihydrofuran-3-yl)-2-fluoro-6-hydroxyphenyl)-1,2,5-thiadiazolidin-3-one 1,1-dioxide], the half-maximal inhibitory concentration (IC50) at PTPN2 (i.e., TC-PTP) is at most 1000 nM; at PTPN1 (i.e., PTP1B) it was at most 1000 nM.
On to `Cn1nc(-c2ccc(O)c(N3CC(=O)NS3(=O)=O)c2F)cc1CCC1CC1` [Compound 463, 5-(3-(5-(2-cyclopropylethyl)-1-methyl-1H-pyrazol-3-yl)-2-fluoro-6-hydroxyphenyl)-1,2,5-thiadiazolidin-3-one 1,1-dioxide], for which the IC50 on PTPN2 (i.e., TC-PTP) was at most 1000 nM; at PTPN1 (i.e., PTP1B) it was at most 1000 nM.
In the case of `O=C1CN(c2c(O)ccc(C3=CCC(NCC4CC4)CC3)c2F)S(=O)(=O)N1` (stereo not drawn) [Compound 315, 5-(4′-((cyclopropylmethyl)amino)-2-fluoro-4-hydroxy-2′,3′,4′,5′-tetrahydro-[1,1′-biphenyl]-3-yl)-1,2,5-thiadiazolidin-3-one 1,1-dioxide], the IC50 on PTPN2 (i.e., TC-PTP) is at most 1000 nM; at PTPN1 (i.e., PTP1B), at most 1000 nM.
On to `CN1CCC(n2cc(-c3ccc(O)c(N4CC(=O)NS4(=O)=O)c3F)cn2)CC1` [Compound 259, 5-(2-fluoro-6-hydroxy-3-(1-(1-methylpiperidin-4-yl)-1H-pyrazol-4-yl)phenyl)-1,2,5-thiadiazolidin-3-one 1,1-dioxide], for which the half-inhibitory concentration (IC50) is at most 1000 nM at PTPN2 (i.e., TC-PTP) and at most 1000 nM on PTPN1 (i.e., PTP1B).
For `COCCS(=O)(=O)Nc1ccc(-c2ccc(O)c(N3CC(=O)NS3(=O)=O)c2F)cc1` [Compound 443, N-(3′-(1,1-dioxido-4-oxo-1,2,5-thiadiazolidin-2-yl)-2′-fluoro-4′-hydroxy-[1,1′-biphenyl]-4-yl)-2-methoxyethane-1-sulfonamide], the concentration for half-maximal inhibition (IC50) on PTPN2 (i.e., TC-PTP) is at most 1000 nM; on PTPN1 (i.e., PTP1B), at most 1000 nM.
As to `COc1cc(-c2ccc(O)c(N3CC(=O)NS3(=O)=O)c2F)[nH]n1` [Compound 428, 5-(2-fluoro-6-hydroxy-3-(3-methoxy-1H-pyrazol-5-yl)phenyl)-1,2,5-thiadiazolidin-3-one 1,1-dioxide], the concentration for half-maximal inhibition (IC50) at PTPN2 (i.e., TC-PTP) was at most 1000 nM; on PTPN1 (i.e., PTP1B) it was at most 1000 nM.
`O=C1CN(c2c(O)ccc(-c3cc(C4CCCCC4)n[nH]3)c2F)S(=O)(=O)N1` [Compound 371, 5-(3-(3-cyclohexyl-1H-pyrazol-5-yl)-2-fluoro-6-hydroxyphenyl)-1,2,5-thiadiazolidin-3-one 1,1-dioxide]: the IC50 on PTPN2 (i.e., TC-PTP) was at most 1000 nM; on PTPN1 (i.e., PTP1B), at most 1000 nM.
For the compound `O=C1CN(c2c(O)ccc(-c3cnn(CCC4CCCOC4)c3)c2F)S(=O)(=O)N1` (stereo not drawn) [Compound 154, 5-(2-fluoro-6-hydroxy-3-(1-(2-(tetrahydro-2H-pyran-3-yl)ethyl)-1H-pyrazol-4-yl)phenyl)-1,2,5-thiadiazolidin-3-one 1,1-dioxide], the half-maximal inhibitory concentration (IC50) on PTPN2 (i.e., TC-PTP) is at most 1000 nM; on PTPN1 (i.e., PTP1B), at most 1000 nM.
Regarding `N#Cc1ccc(-n2cnc(-c3ccc(O)c(N4CC(=O)NS4(=O)=O)c3F)c2)cc1` [Compound 427, 4-(4-(3-(1,1-dioxido-4-oxo-1,2,5-thiadiazolidin-2-yl)-2-fluoro-4-hydroxyphenyl)-1H-imidazol-1-yl)benzonitrile], the IC50 at PTPN2 (i.e., TC-PTP) was at most 1000 nM; at PTPN1 (i.e., PTP1B), at most 1000 nM.
Consider `O=C1CN(c2c(O)ccc(-c3cnn(Cc4cccc(C(F)(F)F)c4)c3)c2F)S(=O)(=O)N1` [Compound 159, 5-(2-fluoro-6-hydroxy-3-(1-(3-(trifluoromethyl)benzyl)-1H-pyrazol-4-yl)phenyl)-1,2,5-thiadiazolidin-3-one 1,1-dioxide], for which the IC50 is at most 1000 nM on PTPN2 (i.e., TC-PTP) and at most 1000 nM on PTPN1 (i.e., PTP1B).
As for `CC(C)CCn1cc(-c2ccc(O)c(N3CC(=O)NS3(=O)=O)c2F)cn1` [Compound 203, 5-(2-fluoro-6-hydroxy-3-(1-isopentyl-1H-pyrazol-4-yl)phenyl)-1,2,5-thiadiazolidin-3-one 1,1-dioxide], the IC50 is at most 1000 nM at PTPN2 (i.e., TC-PTP) and at most 1000 nM on PTPN1 (i.e., PTP1B).
For `O=C1CN(c2c(O)ccc(-c3cc(-c4ccccc4)no3)c2F)S(=O)(=O)N1` [Compound 401, 5-(2-fluoro-6-hydroxy-3-(3-phenylisoxazol-5-yl)phenyl)-1,2,5-thiadiazolidin-3-one 1,1-dioxide], the IC50 was at most 1000 nM at PTPN2 (i.e., TC-PTP) and at most 1000 nM on PTPN1 (i.e., PTP1B).
Consider `CN(C)c1cc(-c2ccc(O)c(N3CC(=O)NS3(=O)=O)c2F)[nH]n1` [Compound 300, 5-(3-(3-(dimethylamino)-1H-pyrazol-5-yl)-2-fluoro-6-hydroxyphenyl)-1,2,5-thiadiazolidin-3-one 1,1-dioxide], for which the IC50 is at most 1000 nM on PTPN2 (i.e., TC-PTP) and at most 1000 nM at PTPN1 (i.e., PTP1B).
`CC(C)CCOC1CCCN(c2cc(O)c(N3CC(=O)NS3(=O)=O)c(F)c2)C1` (stereo not drawn) [Compound 201, 5-(2-fluoro-6-hydroxy-4-(3-(isopentyloxy)piperidin-1-yl)phenyl)-1,2,5-thiadiazolidin-3-one 1,1-dioxide]: the IC50 was at most 1000 nM on PTPN2 (i.e., TC-PTP) and at most 1000 nM at PTPN1 (i.e., PTP1B).
Turning to `Cn1cc(-c2ccc(O)c(N3CC(=O)NS3(=O)=O)c2Cl)cn1` [Compound 311, 5-(2-chloro-6-hydroxy-3-(1-methyl-1H-pyrazol-4-yl)phenyl)-1,2,5-thiadiazolidin-3-one 1,1-dioxide], the IC50 on PTPN2 (i.e., TC-PTP) is at most 1000 nM; at PTPN1 (i.e., PTP1B) it was at most 1000 nM.
`Cn1cc(-c2ccc(O)c(N3CC(=O)NS3(=O)=O)c2F)nc1C1CC1(F)F` (stereo not drawn) [Compound 472, 5-(3-(2-(2,2-difluorocyclopropyl)-1-methyl-1H-imidazol-4-yl)-2-fluoro-6-hydroxyphenyl)-1,2,5-thiadiazolidin-3-one 1,1-dioxide]: the IC50 on PTPN2 (i.e., TC-PTP) is over 1000 nM; at PTPN1 (i.e., PTP1B), at most 1000 nM.
For `O=C1CN(c2c(O)ccc(-c3[nH]nc(C4CC4)c3F)c2F)S(=O)(=O)N1` [Compound 314, 5-(3-(3-cyclopropyl-4-fluoro-1H-pyrazol-5-yl)-2-fluoro-6-hydroxyphenyl)-1,2,5-thiadiazolidin-3-one 1,1-dioxide] the same measures were at most 1000 nM and at most 1000 nM.
For `O=C1CN(c2c(O)ccc(-c3ccc(NS(=O)(=O)C4CC4)c(F)c3)c2F)S(=O)(=O)N1` [Compound 384, N-(3′-(1,1-dioxido-4-oxo-1,2,5-thiadiazolidin-2-yl)-2′,3-difluoro-4′-hydroxy-[1,1′-biphenyl]-4-yl)cyclopropanesulfonamide] the same measures were at most 1000 nM and at most 1000 nM.

These data come from patent US20240398828A1, “HETERO-ATOM CONTAINING COMPOUNDS AND USES THEREOF” (Kumquat Biosciences Inc., priority 2021, published 2024).
